Source: patent US8796001B2, “Metalloenzyme inhibitor compounds” (Viamet Pharmaceuticals, Inc., priority 2011, dated 2014)

Tests used:
[1] = system: Septoria tritici (ATCC 26517); experiment: Minimum Inhibitory Concentration (MIC) vs. Septoria tritici; assay type: cell-based; details: Zymoseptoria tritici, ATCC26517, 168 h; S. tritici ATCC 26517; 50% growth reduction; 7 days at 22 °C; read-out: Septoria Rating (MIC)
Procedure: C. Minimum Inhibitory Concentration (MIC) vs. Septoria Tritici Compounds were assessed for their ability to inhibit the growth of a common strain of the fungal plant pathogen Septoria tritici (ATCC 26517) using a procedure based on a Clinical and Laboratory Standards Institute (CLSI) microdilution assay protocol for filamentous fungi. Stock solutions of the test compounds and standards were prepared in DMSO at 6400 μg/mL. Each stock solution was used to prepare a 2-fold dilution series ranging from 16 to 0.016 μg/mL (total of 11 compound concentrations) in RPMI-1640 (Roswell Park Memorial Institute) medium containing 3-(N-morpholino)propanesulfonic acid (MOPS) buffer and 2% DMSO. A 100 μL aliquot of the dilutions was added to columns 1 (16 μg/mL compound) through 11 (0.016 μg/mL compound) of a 96-well microtiter plate. This format was replicated in a second row of the microtiter plate. Thus, each microtiter plate could include 11 concentrations of four test or control compounds replicated twice. A 100 μL aliquot of RPMI-1640/MOPS/2% DMSO medium was added to column 12 (no compound control) of the microtiter plate. A fresh culture of S. tritici was used to prepare a solution of approximately 5×10^4 colony-forming units per milliliter (cfu/mL) in RPMI/MOPS medium without DMSO. A 100 μL aliquot of this solution was added to all 96 wells in the microtiter plate. […]

[2] = system: Puccinia recondita tritici = Puccinia triticina (PUCCRT); experiment: Fungicidal activity vs. leaf rust on wheat plants; assay type: in vivo; details: wheat (Yuma) sprayed at 50 ppm, inoculated the following day, rated 7-9 days later, read-out: Puccinia Rating (% Disease Control @ 50 ppm)
In short: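 Wheat seedlings sprayed to wet with compound at 50 ppm in 10% acetone/90% Triton X100 water (~1500 L/ha), then inoculated next day with P. triticina spores and held humid overnight.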

MIC [1] [µg/mL] | SMILES | pest or weed control at 50 ppm [2] [%]
≤ 0.5 | OC(Cn1cnnn1)(c1ccc(F)cc1F)C(F)(F)c1ccc(OCc2ccccc2)cn1 (stereo not shown) [Compound 30, 1-(5-(Benzyloxy)pyridin-2-yl)-2-(2,4-difluorophenyl)-1,1-difluoro-3-(1H-tetrazol-1-yl)propan-2-ol] | 80 to 100
≤ 0.5 | CC#CCOc1ccc(C(F)(F)C(O)(Cn2cnnn2)c2ccc(F)cc2F)nc1 (stereo not shown) [Compound 32, 1-(5-(But-2-yn-1-yloxy)pyridin-2-yl)-2-(2,4-difluorophenyl)-1,1-difluoro-3-(1H-tetrazol-1-yl)propan-2-ol] | 
 | OC(Cn1cnnn1)(c1ccc(F)cc1F)C(F)(F)c1ccc(OCC(F)c2ccc(OC(F)F)cc2)cn1 (stereo not shown) [Compound 124, 1-(5-(2-(4-(difluoromethoxy)phenyl)-2-fluoroethoxy)pyridin-2-yl)-2-(2,4-difluorophenyl)-1,1-difluoro-3-(1H-tetrazol-1-yl)propan-2-ol] | 80 to 100
